In PubChem BioAssay AID330 (DTP/NCI, 2004):
Several values for one entry are separate records, joined by “and”; a condition that tells them apart may be missing. Equal values may be shown once. Inconclusive results and toxic doses are left out. Rule for the calls: active = survival T/C of 150% or more; inactive = T/C below 125% in these data.

Tested on: P388 leukemia ip, CD2F1 mice, survival T/C
Assay: NCI In Vivo Anticancer Drug Screen. Data for tumor model P388 Leukemia (intraperitoneal) in CD2F1 (CDF1) mice
Settings: endpoint: median survival time, higher = longer survival
Outline: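 Mice carrying the transplanted tumor received test compound or vehicle. Survival was recorded in each group, and the value is the treated-group measurement divided by that of the vehicle-treated control group.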

[1] = dose: 100.0 mg/kg/injection, schedule: Q01DX009 (ip), vehicle: Klucel (hydroxypropylcellulose) (HPC)
[2] = dose: 200.0 mg/kg/injection, schedule: Q01DX009 (ip), vehicle: Klucel (hydroxypropylcellulose) (HPC)
[3] = dose: 400.0 mg/kg/injection, schedule: Q01DX009 (ip), vehicle: Klucel (hydroxypropylcellulose) (HPC)
[4] = dose: 50.0 mg/kg/injection, schedule: Q01DX009 (ip), vehicle: Klucel (hydroxypropylcellulose) (HPC)
[5] = dose: 50.0 mg/kg/injection, schedule: Q01DX005 (ip), vehicle: saline
[6] = dose: 100.0 mg/kg/injection, schedule: Q01DX005 (ip), vehicle: saline
[7] = dose: 200.0 mg/kg/injection, schedule: Q01DX005 (ip), vehicle: saline
[8] = dose: 25.0 mg/kg/injection, schedule: Q01DX009 (ip), vehicle: saline with Tween-80
[9] = dose: 50.0 mg/kg/injection, schedule: Q01DX009 (ip), vehicle: saline with Tween-80
[10] = dose: 100.0 mg/kg/injection, schedule: Q01DX009 (ip), vehicle: saline with Tween-80
[11] = dose: 200.0 mg/kg/injection, schedule: Q01DX009 (ip), vehicle: saline with Tween-80
[12] = dose: 50.0 mg/kg/injection, schedule: Q01DX005 (ip), vehicle: saline with Tween-80
[13] = dose: 100.0 mg/kg/injection, schedule: Q01DX005 (ip), vehicle: saline with Tween-80
[14] = dose: 200.0 mg/kg/injection, schedule: Q01DX005 (ip), vehicle: saline with Tween-80
[15] = dose: 100.0 mg/kg/injection, schedule: Q01DX001 (ip), vehicle: saline with Tween-80
[16] = dose: 200.0 mg/kg/injection, schedule: Q01DX001 (ip), vehicle: saline with Tween-80
[17] = dose: 12.5 mg/kg/injection, schedule: Q01DX005 (ip), vehicle: Klucel (hydroxypropylcellulose) (HPC)
[18] = dose: 100.0 mg/kg/injection, schedule: Q01DX005 (ip), vehicle: Klucel (hydroxypropylcellulose) (HPC)
[19] = dose: 200.0 mg/kg/injection, schedule: Q01DX005 (ip), vehicle: Klucel (hydroxypropylcellulose) (HPC)

Measured: T/C

ClC(c1ccccc1)C1(Cl)C=c2ccccc2=C1 (configuration not stated)
inactive: [1] 109 % of control | dose: 100.0 mg/kg/injection, schedule: Q04DX003 (ip), vehicle: Klucel (hydroxypropylcellulose) (HPC) 100 % of control | [2] 109 % of control | dose: 200.0 mg/kg/injection, schedule: Q04DX003 (ip), vehicle: Klucel (hydroxypropylcellulose) (HPC) 104 % of control | [3] 113 % of control | dose: 400.0 mg/kg/injection, schedule: Q04DX003 (ip), vehicle: Klucel (hydroxypropylcellulose) (HPC) 109 % of control

O=C(O)c1cccc([N+](=O)[O-])c1O
inactive: [4] 102 % of control | [1] 105 % of control | [2] 101 % of control | [3] 100 % of control

CN(CCCCC(O)CN(C)C(=S)S)C(=S)S (configuration not stated)
inactive: [5] 98 % of control | [6] 102 % of control | [7] 98 % of control

CCC1(CC)COC(C)(C(=O)O)OC1
inactive: [8] 102 % of control | [9] 102 % of control | [10] 94 % of control | [11] 96 % of control

CC(C)N(CCO)CCO
inactive: [5] 104 % of control | [6] 98 % of control | [7] 100 % of control

CCCCCCCCCCCCCCCC(=O)OC(=O)CCCCCCCCCCCCCCC
inactive: [9] 100 % of control | [10] 95 % of control | [11] 94 % of control

NCCSc1nc(-c2ccccc2)c(-c2ccccc2)o1
inactive: [4] 100 % of control | [1] 100 % of control | [2] 101 % of control

NC(CS)=NCC12CC3CC(CC(C3)C1)C2
inactive: dose: 7.5 mg/kg/injection, schedule: Q01DX005 (ip), vehicle: saline with Tween-80 100 % of control | dose: 15.0 mg/kg/injection, schedule: Q01DX005 (ip), vehicle: saline with Tween-80 100 % of control | dose: 30.0 mg/kg/injection, schedule: Q01DX005 (ip), vehicle: saline with Tween-80 115 % of control

COC(=O)c1nn(C)c(=O)[nH]c1=O
inactive: [12] 103 % of control | [13] 98 % of control | [14] 100 % of control

Clc1ccc(C2NCCNCc3ccccc32)cc1 (configuration not stated)
inactive: [8] 101 % of control | [9] 107 % of control | [10] 98 % of control and 115 % of control

CC(C)=CCc1cc(O)c(CC=C(C)C)cc1O
inactive: [8] 101 % of control | [9] 106 % of control | [10] 96 % of control | [11] 96 % of control

CC(C)NC(=O)OCc1cn2c(c1COC(=O)NC(C)C)CCC2
inactive: dose: 12.5 mg/kg/injection, schedule: Q01DX005 (ip), vehicle: saline with Tween-80 120 % of control and 121 % of control | dose: 25.0 mg/kg/injection, schedule: Q01DX005 (ip), vehicle: saline with Tween-80 112 % of control

CN(C)C(=O)n1cnc([N+](=O)[O-])c1
inactive: [15] 97 % of control | [16] 112 % of control

O=C1CCC(=O)N1SCc1cccc2ccccc12
inactive: [4] 115 % of control | [1] 93 % of control | [2] 102 % of control

CN=C(N)N/N=C(\C)c1ccc2ccc3ccccc3c2c1
inactive: dose: 50.0 mg/kg/injection, schedule: Q04DX002 (ip), vehicle: saline with Tween-80 105 % of control

O=[N+]([O-])c1ccc(CN2CCC(C(=S)Nc3ccccc3)=C2c2ccccc2)cc1
inactive: dose: 6.25 mg/kg/injection, schedule: Q01DX005 (ip), vehicle: Klucel (hydroxypropylcellulose) (HPC) 92 % of control | [17] 90 % of control | dose: 25.0 mg/kg/injection, schedule: Q01DX005 (ip), vehicle: Klucel (hydroxypropylcellulose) (HPC) 87 % of control | [18] 92 % of control | [19] 87 % of control

CC(/C=C/c1ccccc1)=N\NS(=O)(=O)c1ccc(C)cc1
inactive: [12] 95 % of control | [13] 91 % of control

Cc1c2c(nc3ccccc13)-c1ccccc1C(C)(C)C2O (configuration not stated)
inactive: [15] 99 % of control | [16] 106 % of control | dose: 400.0 mg/kg/injection, schedule: Q01DX001 (ip), vehicle: saline with Tween-80 106 % of control

CCCCn1[nH]nc(C(=O)OC)c1=O (tested in a mixture with another compound)
inactive: [5] 105 % of control | [6] 102 % of control | [7] 94 % of control

CN1C(c2ccncc2)=NCC12CCCCC2
inactive: dose: 6.25 mg/kg/injection, schedule: Q01DX005 (ip), vehicle: saline 97 % of control | dose: 12.5 mg/kg/injection, schedule: Q01DX005 (ip), vehicle: saline 100 % of control | dose: 12.5 mg/kg/injection, schedule: Q04DX002 (ip), vehicle: saline 106 % of control | dose: 25.0 mg/kg/injection, schedule: Q01DX005 (ip), vehicle: saline 95 % of control | dose: 25.0 mg/kg/injection, schedule: Q04DX002 (ip), vehicle: saline 106 % of control

CC(C)(C)N1CC1CN (configuration not stated)
inactive: dose: 25.0 mg/kg/injection, schedule: Q01DX009 (ip), vehicle: saline 100 % of control | dose: 50.0 mg/kg/injection, schedule: Q01DX009 (ip), vehicle: saline 107 % of control | dose: 100.0 mg/kg/injection, schedule: Q01DX009 (ip), vehicle: saline 105 % of control

CNC(=O)O/N=C/c1ccccc1-c1ccccc1
inactive: [9] 97 % of control | [10] 86 % of control

O=C(NCCCCCCCCNC(=O)C(Cl)Cl)C(Cl)Cl
inactive: [12] 106 % of control | [13] 99 % of control | [14] 92 % of control

CCS/C(SC)=C(/c1ccccc1)[P+](c1ccccc1)(c1ccccc1)c1ccccc1
inactive: dose: 3.12 mg/kg/injection, schedule: Q01DX005 (ip), vehicle: Klucel (hydroxypropylcellulose) (HPC) 106 % of control | [17] 117 % of control

O=C1CC[S][Sn][O]1
inactive: dose: 100.0 mg/kg/injection, schedule: Q04DX003 (ip), vehicle: saline with Tween-80 100 % of control | dose: 200.0 mg/kg/injection, schedule: Q04DX003 (ip), vehicle: saline with Tween-80 95 % of control | dose: 400.0 mg/kg/injection, schedule: Q04DX003 (ip), vehicle: saline with Tween-80 95 % of control

CC1CCC(OC(=O)NCCCl)CC1 (configuration not stated)
inactive: dose: 50.0 mg/kg/injection, schedule: Q01DX005 (ip), vehicle: Klucel (hydroxypropylcellulose) (HPC) 97 % of control | [18] 96 % of control | [19] 101 % of control

CC1(C)CC(=O)C2OC21 (configuration not stated)
inactive: dose: 100.0 mg/kg/injection, schedule: Q04DX002 (ip), vehicle: saline 107 % of control and 95 % of control | dose: 200.0 mg/kg/injection, schedule: Q04DX002 (ip), vehicle: saline 101 % of control | dose: 400.0 mg/kg/injection, schedule: Q04DX002 (ip), vehicle: saline 106 % of control and 107 % of control

NC(=S)N/N=C/c1c(Cl)nc2n1CCS2
inactive: dose: 100.0 mg/kg/injection, schedule: Q01DX001 (ip), vehicle: Klucel (hydroxypropylcellulose) (HPC) 94 % of control | dose: 200.0 mg/kg/injection, schedule: Q01DX001 (ip), vehicle: Klucel (hydroxypropylcellulose) (HPC) 93 % of control | dose: 400.0 mg/kg/injection, schedule: Q01DX001 (ip), vehicle: Klucel (hydroxypropylcellulose) (HPC) 92 % of control
